Results from patent US20040156869A1, “2-substituted quinazolin-4-ylamine analogues” (Neurogen Corporation, priority 2002, published 2004).

The molecules below were run against human capsaicin receptor (VR1) (Homo sapiens, UniProt Q8NER1) (assay: Capsaicin receptor binding assay ([3H]RTX competition, VR1-transfected HEK293 membranes)). Conditions: not given.
Sequence of human capsaicin receptor (VR1) (Q8NER1 whole entry): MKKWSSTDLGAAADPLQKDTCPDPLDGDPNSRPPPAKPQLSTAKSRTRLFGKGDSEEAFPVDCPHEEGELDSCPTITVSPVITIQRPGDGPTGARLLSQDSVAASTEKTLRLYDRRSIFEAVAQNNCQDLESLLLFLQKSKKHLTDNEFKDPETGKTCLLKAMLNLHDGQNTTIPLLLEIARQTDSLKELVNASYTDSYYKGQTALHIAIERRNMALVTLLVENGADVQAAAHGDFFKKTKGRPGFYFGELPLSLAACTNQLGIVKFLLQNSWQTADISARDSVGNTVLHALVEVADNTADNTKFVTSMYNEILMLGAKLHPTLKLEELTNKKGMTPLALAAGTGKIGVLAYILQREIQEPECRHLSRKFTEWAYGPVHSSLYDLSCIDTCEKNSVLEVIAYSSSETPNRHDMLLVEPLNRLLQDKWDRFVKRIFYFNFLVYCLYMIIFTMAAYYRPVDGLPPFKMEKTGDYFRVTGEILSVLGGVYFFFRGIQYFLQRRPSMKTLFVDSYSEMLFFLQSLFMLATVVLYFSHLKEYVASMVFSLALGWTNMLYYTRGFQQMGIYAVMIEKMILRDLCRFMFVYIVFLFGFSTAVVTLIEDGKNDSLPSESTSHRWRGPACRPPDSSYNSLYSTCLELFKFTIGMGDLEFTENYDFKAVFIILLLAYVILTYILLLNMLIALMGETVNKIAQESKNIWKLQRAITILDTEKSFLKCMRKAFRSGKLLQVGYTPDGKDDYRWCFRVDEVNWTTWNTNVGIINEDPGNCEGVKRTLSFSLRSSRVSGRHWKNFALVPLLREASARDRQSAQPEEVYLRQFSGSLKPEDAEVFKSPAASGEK

Row | Structure (SMILES) | Ki
1 | CCCN(C)Cc1nc(Nc2ccc(C(C)C)cc2)c2ccc(-c3ncccc3C)cc2n1 [Compound 716, (4-Isopropyl-phenyl)-[2-[(methyl-propyl-amino)-methyl]-7-(3-methyl-pyridin-2-yl)-quinazolin-4-yl]-amine] | < 1000 nM
2 | O=C(O)C1CCCN(Cc2nc(Nc3ccc(C(F)(F)F)cc3)c3ccc(-c4ncccc4C(F)(F)F)cc3n2)C1 (centres unmarked) [Compound 729, 1-[4-(4-Trifluoromethyl-phenylamino)-7-(3-trifluoromethyl-pyridin-2-yl)-quinazolin-2-ylmethyl]-piperidine-3-carboxylic acid] | < 1000 nM
3 | CCOC(=O)c1nc(Nc2ccc(C(F)(F)F)cc2)c2ccc(-c3ncccc3C(F)(F)F)nc2n1 [Compound 173, 4-(4-Trifluoromethyl-phenylamino)-7-(3-trifluoromethyl-pyridin-2-yl)-pyrido[2,3-d]pyrimidine-2-carboxylic acid ethyl ester] | < 1000 nM
4 | CC(C)COCc1nc(Nc2ccc(S(C)(=O)=O)cc2)c2ccc(-c3ncccc3Cl)nc2n1 [Compound 226, [7-(3-Chloro-pyridin-2-yl)-2-isobutoxymethyl-pyrido[2,3-d]pyrimidin-4-yl]-(4-methanesulfonyl-phenyl)-amine] | < 1000 nM
5 | COCc1nc(Nc2ccc(C(C)(C)C)cc2)c2ccc(-c3ncccc3Cl)cc2n1 [Compound 71, (4-tert-Butyl-phenyl)-[7-(3-chloro-pyridin-2-yl)-2-methoxymethyl-quinazolin-4-yl]-amine] | < 1000 nM
6 | CC(C)COCc1nc(Nc2ccc(C#N)cc2)c2ccc(-c3ncccc3C(F)(F)F)nc2n1 [Compound 272, 4-[2-Isobutoxymethyl-7-(3-trifluoromethyl-pyridin-2-yl)-pyrido[2,3-d]pyrimidin-4-ylamino]-benzonitrile] | < 1000 nM
7 | OC1CCCN(CCCc2nc(Nc3ccc(C(F)(F)F)cc3)c3ccc(-c4ncccc4C(F)(F)F)cc3n2)C1 (centres unmarked) [Compound 571, 1-{3-[4-(4-Trifluoromethyl-phenylamino)-7-(3-trifluoromethyl-pyridin-2-yl)-quinazolin-2-yl]-propyl}piperidin-3-ol] | < 1000 nM
8 | CC(C)(C)c1ccc(Nc2nc(COCCCCN3CCOCC3)nc3cc(-c4ncccc4C(F)(F)F)ccc23)cc1 [Compound 125, (4-tert-Butyl-phenyl)-[2-(4-morpholin-4-yl-butoxymethyl)-7-(3-trifluoromethyl-pyridin-2-yl)-quinazolin-4-yl]-amine] | < 1000 nM
9 | O=C(c1nc(Nc2ccc(C(F)(F)F)cc2)c2ccc(-c3ncccc3C(F)(F)F)nc2n1)N1CCN(C2CCCC2)CC1 [Compound 473, (4-Cyclopentyl-piperazin-1-yl)-[4-(4-trifluoromethyl-phenylamino)-7-(3-trifluoromethyl-pyridin-2-yl)-pyrido[2,3-d]pyrimidin-2-yl]-methanone] | < 1000 nM
10 | CC(C)c1ccc(Nc2nc(COC3CCOCC3)nc3cc(-c4ncccc4C(F)(F)F)ccc23)cc1 [Compound 101, (4-Isopropyl-phenyl)-[2-(tetrahydro-pyran-4-yloxymethyl)-7-(3-trifluoromethyl-pyridin-2-yl)-quinazolin-4-yl]-amine] | < 1000 nM
11 | CC(C)COCc1nc(Nc2ccc(Cl)cc2)c2ccc(-c3ncccc3C(F)(F)F)nc2n1 [Compound 249, (4-Chloro-phenyl)-[2-isobutoxymethyl-7-(3-trifluoromethyl-pyridin-2-yl)-pyrido[2,3-d]pyrimidin-4-yl]-amine] | < 1000 nM
12 | O=C(NCC1CC1)c1nc(Nc2ccc(C(F)(F)F)cc2)c2ccc(-c3ncccc3C(F)(F)F)nc2n1 [Compound 453, 4-(4-Trifluoromethyl-phenylamino)-7-(3-trifluoromethyl-pyridin-2-yl)-pyrido[2,3-d]pyrimidine-2-carboxylic acid cyclopropylmethyl-amide] | < 1000 nM
13 | CN(CCc1nc(Nc2ccc(C(F)(F)F)cc2)c2ccc(-c3ncccc3C(F)(F)F)cc2n1)C1CCc2ccccc21 (centres unmarked) [Compound 389, [2-[2-(Indan-1-yl-methyl-amino)-ethyl]-7-(3-trifluoromethyl-pyridin-2-yl)-quinazolin-4-yl]-(4-trifluoromethyl-phenyl)-amine] | < 1000 nM
14 | FC(F)(F)c1ccc(Nc2nc(COC3CCOCC3)nc3cc(-c4ncccc4Cl)ccc23)cc1 [Compound 102, [7-(3-Chloro-pyridin-2-yl)-2-(tetrahydro-pyran-4-yloxymethyl)-quinazolin-4-yl]-(4-trifluoromethyl-phenyl)-amine] | < 1000 nM
15 | COCCN(CCOC)CCc1nc(Nc2ccc(C(F)(F)F)cc2)c2ccc(-c3ncccc3C(F)(F)F)cc2n1 [Compound 427, [2-{2-[Bis-(2-methoxy-ethyl)-amino]-ethyl}-7-(3-trifluoromethyl-pyridin-2-yl)-quinazolin-4-yl]-(4-trifluoromethyl-phenyl)-amine] | < 1000 nM
16 | CCC(C)c1ccc(Nc2nc(COCCOC)nc3nc(-c4ncccc4Cl)ccc23)cc1 (centres unmarked) [Compound 84, (4-sec-Butyl-phenyl)-[7-(3-chloro-pyridin-2-yl)-2-(2-methoxy-ethoxymethyl)-pyrido[2,3-d]pyrimidin-4-yl]-amine] | < 1000 nM

Row | Structure (SMILES) | Ki
17 | FC(F)(F)c1ccc(Nc2nc(-c3cccnc3)nc3cc(-c4ncccc4C(F)(F)F)ccc23)cc1 [Compound 508, [2-Pyridin-3-yl-7-(3-trifluoromethyl-pyridin-2-yl)-quinazolin-4-yl]-(4-trifluoromethyl-phenyl)-amine] | < 1000 nM
18 | COCc1nc(Nc2ccc(OC(F)(F)F)cc2)c2ccc(-c3ncccc3C)nc2n1 [Compound 196, [2-Methoxymethyl-7-(3-methyl-pyridin-2-yl)-pyrido[2,3-d]pyrimidin-4-yl]-(4-trifluoromethoxy-phenyl)-amine] | < 1000 nM
19 | FC(F)(F)c1ccc(Nc2nc(CN3CCCCC3)nc3cc(-c4ncccc4C(F)(F)F)ccc23)cn1 [Compound 359, [2-Piperidin-1-ylmethyl-7-(3-trifluoromethyl-pyridin-2-yl)-quinazolin-4-yl]-(6-trifluoromethyl-pyridin-3-yl)-amine] | < 1000 nM
20 | Cc1cccnc1-c1ccc2c(Nc3ccc(C(C)(C)C#N)cc3)nc(C3CCOC3)nc2n1 (centres unmarked) [Compound 175, 2-Methyl-2-{4-[7-(3-methyl-pyridin-2-yl)-2-(tetrahydro-furan-3-yl)-pyrido[2,3-d]pyrimidin-4-ylamino]-phenyl}-propionitrile] | < 1000 nM
21 | CC1(C)CCCN(Cc2nc(Nc3ccc(C(F)(F)F)cc3)c3ccc(-c4ncccc4C(F)(F)F)nc3n2)C1 [Compound 750, [2-(3,3-Dimethyl-piperidin-1-ylmethyl)-7-(3-trifluoromethyl-pyridin-2-yl)-pyrido[2,3-d]pyrimidin-4-yl]-(4-trifluoromethyl-phenyl)-amine] | < 1000 nM
22 | O=C(NCCN1CCOCC1)c1nc(Nc2ccc(C(F)(F)F)cc2)c2ccc(-c3ncccc3C(F)(F)F)cc2n1 [Compound 709, 4-(4-Trifluoromethyl-phenylamino)-7-(3-trifluoromethyl-pyridin-2-yl)-quinazoline-2-carboxylic acid (2-morpholin-4-yl-ethyl)-amide] | < 1000 nM
23 | C[C@H]1CN(Cc2nc(Nc3ccc(C(F)(F)F)cc3)c3ncc(-c4ncccc4C(F)(F)F)cc3n2)C[C@H](C)O1 [Compound 658, (S,S)-[2-(2,6-Dimethyl-morpholin-4-ylmethyl)-7-(3-trifluoromethyl-pyridin-2-yl)-pyrido[3,2-d]pyrimidin-4-yl]-(4-trifluoromethyl-phenyl)-amine] | < 1000 nM
24 | CC1(C)CCCN(Cc2nc(Nc3ccc(C(F)(F)F)cc3)c3ccc(-c4ncccc4C(F)(F)F)cc3n2)C1 [Compound 549, [2-(3,3-Dimethyl-piperidin-1-ylmethyl)-7-(3-trifluoromethyl-pyridin-2-yl)-quinazolin-4-yl]-(4-trifluoromethyl-phenyl)-amine] | < 1000 nM
25 | O=C(O)[C@@H]1CCCN1Cc1nc(Nc2ccc(C(F)(F)F)cc2)c2ccc(-c3ncccc3C(F)(F)F)nc2n1 [Compound 751, (S)-1-[4-(4-Trifluoromethyl-phenylamino)-7-(3-trifluoromethyl-pyridin-2-yl)-pyrido[2,3-d]pyrimidin-2-ylmethyl]-pyrrolidine-2-carboxylic acid] | < 1000 nM
26 | CCOCc1nc(Nc2ccc(C(C)(C)C)cc2)c2ccc(-c3ncccc3Cl)nc2n1 [Compound 132, (4-tert-Butyl-phenyl)-[7-(3-chloro-pyridin-2-yl)-2-ethoxymethyl-pyrido[2,3-d]pyrimidin-4-yl]-amine] | < 1000 nM
27 | FC(F)(F)c1ccc(Nc2nc(CNCc3ccccc3)nc3cc(-c4ncccc4C(F)(F)F)ccc23)cn1 [Compound 574, [2-(Benzylamino-methyl)-7-(3-trifluoromethyl-pyridin-2-yl)-quinazolin-4-yl]-(6-trifluoromethyl-pyridin-3-yl)-amine] | < 1000 nM
28 | Cc1cccnc1-c1ccc2c(Nc3ccc(C(F)(F)F)cc3)nc(COC3CCOCC3)nc2c1 [Compound 92, [7-(3-Methyl-pyridin-2-yl)-2-(tetrahydro-pyran-4-yloxymethyl)-quinazolin-4-yl]-(4-trifluoromethyl-phenyl)-amine] | < 1000 nM
29 | COCc1nc(Nc2ccc(C(C)C)cc2)c2ccc(-c3ncccc3Cl)cc2n1 [Compound 69, [7-(3-Chloro-pyridin-2-yl)-2-methoxymethyl-quinazolin-4-yl]-(4-isopropyl-phenyl)-amine] | < 1000 nM
30 | FC(F)(F)c1ccc(Nc2nc(CN3CCCCCCC3)nc3cc(-c4ncccc4C(F)(F)F)ccc23)cn1 [Compound 362, [2-Azocan-1-ylmethyl-7-(3-trifluoromethyl-pyridin-2-yl)-quinazolin-4-yl]-(6-trifluoromethyl-pyridin-3-yl)-amine] | < 1000 nM
31 | C=CCN(CC=C)CCc1nc(Nc2ccc(C(F)(F)F)cc2)c2ccc(-c3ncccc3C(F)(F)F)cc2n1 [Compound 415, [2-Diallylaminoethyl-7-(3-trifluoromethyl-pyridin-2-yl)-quinazolin-4-yl]-(4-trifluoromethyl-phenyl)-amine] | < 1000 nM

Same assay, conditions: Table III; capsaicin receptor binding

Row | Structure (SMILES) | Ki
32 | CCCN(CCC)Cc1nc(Nc2ccc(C(F)(F)F)nc2)c2ccc(-c3ncccc3C(F)(F)F)cc2n1 [Compound 557, [2-Dipropylaminomethyl-7-(3-trifluoromethyl-pyridin-2-yl)-quinazolin-4-yl]-(6-trifluoromethyl-pyridin-3-yl)-amine] | < 1000 nM
